Consider 23 compounds from patent publication US10308639B2, “Phosphatidylinositol 3-kinase inhibitors” (Gilead Sciences, Inc., priority 2014, dated 2019).

Common to all, as to type: biochemical
For one assay, the target named is T1, PI3Kδ (Homo sapiens, UniProt O00329).
T1 construct: made in house
Kind of assay: TR-FRET enzymatic activity assay, PI3Kδ. In general terms: TR-FRET usually uses a lanthanide donor and a delayed reading to cut background.

For another assay, the target named is T2, PI3Kγ (Homo sapiens, UniProt P48736).
T2 construct: made in house
Briefly: TR-FRET enzymatic activity assay, PI3Kγ. The settings on record: read-out: PI3Kγ IC50. In a few lines:
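Activity measured by time-resolved FRET; each isoform tested in its own enzymatic reaction.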

Another assay addresses T3, PI3Kβ (Homo sapiens, UniProt P42338).
T3 construct: made in house
Kind of assay: TR-FRET enzymatic activity assay, PI3Kβ.

The mark [1] stands for this setting: Table 2, TR-FRET, 2x Km ATP, 30 minutes at 25° C.

Like-named read-outs stand apart in the source and are kept apart here.

A word on the IC50: it is the concentration that inhibits the measured activity by half.

T3 sequence (P42338 whole entry): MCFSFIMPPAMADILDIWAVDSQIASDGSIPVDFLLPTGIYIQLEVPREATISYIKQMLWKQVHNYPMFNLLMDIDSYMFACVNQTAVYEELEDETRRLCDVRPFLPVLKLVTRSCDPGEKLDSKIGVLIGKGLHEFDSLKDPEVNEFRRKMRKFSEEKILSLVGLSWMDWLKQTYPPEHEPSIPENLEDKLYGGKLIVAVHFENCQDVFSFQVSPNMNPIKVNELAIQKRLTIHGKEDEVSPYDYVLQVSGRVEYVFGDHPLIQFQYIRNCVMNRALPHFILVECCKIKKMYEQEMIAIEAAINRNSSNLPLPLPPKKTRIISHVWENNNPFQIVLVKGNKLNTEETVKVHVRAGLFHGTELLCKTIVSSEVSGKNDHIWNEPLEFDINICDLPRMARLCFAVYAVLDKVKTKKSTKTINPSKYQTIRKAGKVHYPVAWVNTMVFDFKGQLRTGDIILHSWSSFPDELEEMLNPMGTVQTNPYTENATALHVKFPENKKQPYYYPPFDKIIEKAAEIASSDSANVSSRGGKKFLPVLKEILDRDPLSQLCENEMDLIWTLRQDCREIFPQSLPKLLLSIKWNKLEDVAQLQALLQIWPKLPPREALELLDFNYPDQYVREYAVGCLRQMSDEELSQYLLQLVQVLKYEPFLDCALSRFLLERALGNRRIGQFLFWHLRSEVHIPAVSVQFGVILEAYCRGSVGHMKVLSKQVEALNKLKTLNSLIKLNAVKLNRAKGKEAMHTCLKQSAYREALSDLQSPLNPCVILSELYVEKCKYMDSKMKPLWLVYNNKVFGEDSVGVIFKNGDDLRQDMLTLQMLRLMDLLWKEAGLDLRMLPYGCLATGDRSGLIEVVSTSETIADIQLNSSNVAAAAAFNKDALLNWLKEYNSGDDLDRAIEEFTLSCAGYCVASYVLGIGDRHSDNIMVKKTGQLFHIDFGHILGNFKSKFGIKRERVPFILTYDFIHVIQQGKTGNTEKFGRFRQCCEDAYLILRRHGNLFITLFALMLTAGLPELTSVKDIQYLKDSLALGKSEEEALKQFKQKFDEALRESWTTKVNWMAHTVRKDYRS
T3 sequence (P27986 whole entry partner): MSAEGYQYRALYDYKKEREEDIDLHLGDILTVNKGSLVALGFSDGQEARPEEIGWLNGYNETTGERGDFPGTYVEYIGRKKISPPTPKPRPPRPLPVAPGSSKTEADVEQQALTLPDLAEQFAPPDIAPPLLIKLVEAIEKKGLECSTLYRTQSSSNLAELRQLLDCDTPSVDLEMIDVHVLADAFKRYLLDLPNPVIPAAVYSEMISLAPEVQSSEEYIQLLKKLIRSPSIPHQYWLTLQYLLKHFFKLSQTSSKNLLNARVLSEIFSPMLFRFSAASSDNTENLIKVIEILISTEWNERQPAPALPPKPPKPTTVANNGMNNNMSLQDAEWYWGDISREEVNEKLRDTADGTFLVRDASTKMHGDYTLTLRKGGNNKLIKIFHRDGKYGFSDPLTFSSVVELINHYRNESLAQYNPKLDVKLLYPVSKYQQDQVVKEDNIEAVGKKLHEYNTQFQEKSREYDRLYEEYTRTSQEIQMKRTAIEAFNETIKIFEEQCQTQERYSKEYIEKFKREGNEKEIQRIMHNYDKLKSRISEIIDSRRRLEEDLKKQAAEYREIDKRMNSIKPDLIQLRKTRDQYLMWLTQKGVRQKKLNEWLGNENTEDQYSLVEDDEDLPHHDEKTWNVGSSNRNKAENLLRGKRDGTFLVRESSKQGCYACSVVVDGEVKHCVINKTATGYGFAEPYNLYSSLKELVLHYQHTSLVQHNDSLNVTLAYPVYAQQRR
T2 sequence (P48736 whole entry): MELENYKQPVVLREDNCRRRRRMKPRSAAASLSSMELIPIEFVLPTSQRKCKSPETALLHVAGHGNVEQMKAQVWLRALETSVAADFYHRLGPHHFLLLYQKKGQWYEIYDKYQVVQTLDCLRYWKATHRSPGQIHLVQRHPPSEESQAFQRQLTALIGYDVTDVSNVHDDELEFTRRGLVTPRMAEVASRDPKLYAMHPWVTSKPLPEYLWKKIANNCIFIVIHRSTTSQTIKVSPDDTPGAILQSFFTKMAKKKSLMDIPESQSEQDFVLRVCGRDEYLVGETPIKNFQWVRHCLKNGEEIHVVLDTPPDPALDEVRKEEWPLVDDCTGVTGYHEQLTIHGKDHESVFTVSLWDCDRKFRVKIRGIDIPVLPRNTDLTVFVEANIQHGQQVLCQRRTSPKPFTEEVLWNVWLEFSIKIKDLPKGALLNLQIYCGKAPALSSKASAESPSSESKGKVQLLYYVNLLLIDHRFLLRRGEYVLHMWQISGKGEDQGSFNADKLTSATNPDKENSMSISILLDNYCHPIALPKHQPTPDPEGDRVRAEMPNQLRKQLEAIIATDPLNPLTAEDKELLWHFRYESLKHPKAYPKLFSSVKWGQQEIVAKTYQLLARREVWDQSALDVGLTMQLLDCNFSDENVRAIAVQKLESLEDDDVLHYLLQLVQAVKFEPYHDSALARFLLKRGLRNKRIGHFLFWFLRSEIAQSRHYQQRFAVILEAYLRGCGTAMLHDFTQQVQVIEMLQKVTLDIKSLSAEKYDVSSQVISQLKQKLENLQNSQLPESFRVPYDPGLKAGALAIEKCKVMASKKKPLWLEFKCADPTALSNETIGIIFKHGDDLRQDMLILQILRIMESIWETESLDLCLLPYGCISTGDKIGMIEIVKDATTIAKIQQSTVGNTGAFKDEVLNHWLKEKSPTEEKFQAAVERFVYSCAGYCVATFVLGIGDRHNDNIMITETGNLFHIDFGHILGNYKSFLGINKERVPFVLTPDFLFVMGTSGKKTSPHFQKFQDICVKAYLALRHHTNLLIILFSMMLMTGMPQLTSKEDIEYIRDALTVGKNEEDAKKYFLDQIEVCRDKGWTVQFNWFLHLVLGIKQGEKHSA
T1 sequence (O00329 whole entry): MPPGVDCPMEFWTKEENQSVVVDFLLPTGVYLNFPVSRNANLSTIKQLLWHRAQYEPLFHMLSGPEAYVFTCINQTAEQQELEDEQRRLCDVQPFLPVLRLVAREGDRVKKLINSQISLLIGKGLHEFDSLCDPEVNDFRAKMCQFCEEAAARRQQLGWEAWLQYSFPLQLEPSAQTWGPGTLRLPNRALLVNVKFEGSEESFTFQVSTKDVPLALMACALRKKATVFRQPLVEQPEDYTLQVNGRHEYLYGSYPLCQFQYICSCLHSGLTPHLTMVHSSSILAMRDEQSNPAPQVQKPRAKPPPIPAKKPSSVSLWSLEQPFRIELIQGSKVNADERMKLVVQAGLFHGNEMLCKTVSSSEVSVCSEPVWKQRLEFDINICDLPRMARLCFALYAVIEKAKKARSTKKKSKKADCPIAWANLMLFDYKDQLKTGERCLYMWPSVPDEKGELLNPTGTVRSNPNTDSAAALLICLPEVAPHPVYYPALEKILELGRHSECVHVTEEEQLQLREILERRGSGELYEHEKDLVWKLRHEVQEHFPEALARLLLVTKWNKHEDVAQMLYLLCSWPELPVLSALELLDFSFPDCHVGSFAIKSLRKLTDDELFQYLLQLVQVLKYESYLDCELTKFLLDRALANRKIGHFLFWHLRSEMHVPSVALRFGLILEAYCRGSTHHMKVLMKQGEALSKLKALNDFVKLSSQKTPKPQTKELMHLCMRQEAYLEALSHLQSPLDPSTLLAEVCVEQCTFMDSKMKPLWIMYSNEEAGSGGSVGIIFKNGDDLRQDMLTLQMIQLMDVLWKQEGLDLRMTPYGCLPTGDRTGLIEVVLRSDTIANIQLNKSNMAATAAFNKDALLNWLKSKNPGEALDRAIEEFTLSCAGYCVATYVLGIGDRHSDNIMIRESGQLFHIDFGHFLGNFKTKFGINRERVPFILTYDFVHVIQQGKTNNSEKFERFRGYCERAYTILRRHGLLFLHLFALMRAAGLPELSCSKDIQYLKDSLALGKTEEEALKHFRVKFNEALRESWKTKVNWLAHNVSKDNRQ
T1 sequence (P27986 whole entry partner): as the sequence (P27986 whole entry partner) above

For `N#Cc1c(N)nc(N)nc1N[C@@H](c1ccccc1)c1nc2cccc(Cl)c2c(=O)n1-c1cn[nH]c1` [Compound 106, (S)-2,4-diamino-6-(((5-chloro-4-oxo-3-(1H-pyrazol-4-yl)-3,4-dihydroquinazolin-2-yl)(phenyl)methyl)amino)pyrimidine-5-carbonitrile], the half-inhibitory concentration (IC50) at PI3Kδ (setting [1]) was determined as 2 nM; at PI3Kγ (setting [1]) it was 210 nM; on PI3Kβ (setting [1]), 4 nM.

`Nc1nc(N)c(Cl)c(N[C@@H](c2ccccc2)c2nc3cccc(Cl)c3c(=O)n2-c2cn[nH]c2)n1` [Compound 107, (S)-5-chloro-2-(((2,6-diamino-5-chloropyrimidin-4-yl)amino)(phenyl)methyl)-3-(1H-pyrazol-4-yl)quinazolin-4(3h)-one]: the values for the IC50 against PI3Kδ (setting [1]), on PI3Kγ (setting [1]) and against PI3Kβ (setting [1]) were 11 nM, 2400 nM and 49 nM, respectively.

For `Cc1nc(N)nc(N[C@@H](c2ccccc2)c2nc3cccc(Cl)c3c(=O)n2-c2cn[nH]c2)c1C#N` [Compound 108, (S)-2-amino-4-(((5-chloro-4-oxo-3-(1H-pyrazol-4-yl)-3,4-dihydroquinazolin-2-yl)(phenyl)methyl)amino)-6-methylpyrimidine-5-carbonitrile], the IC50 against PI3Kδ (setting [1]) was 1 nM; on PI3Kγ (setting [1]), 150 nM; against PI3Kβ (setting [1]), 5 nM.

With `Nc1nc(N)c(Cl)c(N[C@@H](c2ccccc2)c2nc3cccc(Cl)c3c(=O)n2-c2cc[nH]n2)n1` [Compound 109, (S)-5-chloro-2-(((2,6-diamino-5-chloropyrimidin-4-yl)amino)(phenyl)methyl)-3-(1H-pyrazol-3-yl)quinazolin-4(3h)-one], the figures for the half-inhibitory concentration (IC50) on PI3Kδ (setting [1]), on PI3Kγ (setting [1]) and on PI3Kβ (setting [1]) were 9 nM, 4900 nM and 25 nM, respectively.

As to `Cc1nc(N)nc(N[C@@H](c2ccccc2)c2nc3cccc(Cl)c3c(=O)n2-c2cc[nH]n2)c1C#N` [Compound 110, (S)-2-amino-4-(((5-chloro-4-oxo-3-(1H-pyrazol-3-yl)-3,4-dihydroquinazolin-2-yl)(phenyl)methyl)amino)-6-methylpyrimidine-5-carbonitrile], the results for the IC50 against PI3Kδ (setting [1]), at PI3Kγ (setting [1]) and at PI3Kβ (setting [1]) were 1 nM, 410 nM and 4 nM, respectively.

With `CC[C@H](Nc1nc(N)nc(N)c1C#N)c1nc2ccc(F)cc2c(=O)n1-c1cc[nH]n1` [Compound 112, (S)-2,4-diamino-6-((1-(6-fluoro-4-oxo-3-(1H-pyrazol-3-yl)-3,4-dihydroquinazolin-2-yl)propyl)amino)pyrimidine-5-carbonitrile], the half-maximal inhibitory concentration (IC50) against PI3Kδ (setting [1]) was 4 nM; at PI3Kγ (setting [1]), 2200 nM; on PI3Kβ (setting [1]) it was 17 nM.

`N#Cc1c(N)nc(N)nc1N[C@H](c1nc2ccc(F)cc2c(=O)n1-c1cc[nH]n1)C1CC1` [Compound 113, (S)-2,4-diamino-6-((cyclopropyl(6-fluoro-4-oxo-3-(1H-pyrazol-3-yl)-3,4-dihydroquinazolin-2-yl)methyl)amino)pyrimidine-5-carbonitrile]: the half-maximal inhibitory concentration (IC50) against PI3Kδ (setting [1]) was 1 nM; at PI3Kγ (setting [1]) it was 980 nM; against PI3Kβ (setting [1]) it was 2 nM.

As for `Nc1nc(N)c(Cl)c(N[C@H](c2nc3ccc(F)cc3c(=O)n2-c2cc[nH]n2)C2CC2)n1` [Compound 114, (S)-2-(cyclopropyl((2,6-diamino-5-chloropyrimidin-4-yl)amino)methyl)-6-fluoro-3-(1H-pyrazol-3-yl)quinazolin-4(3h)-one], the IC50 is 23 nM on PI3Kδ (setting [1]), > 10000 nM on PI3Kγ and 110 nM at PI3Kβ (setting [1]).

`C[C@H](Nc1nc(N)nc(N)c1C#N)c1nc2ccc(F)cc2c(=O)n1-c1cc[nH]n1` [Compound 115, (S)-2,4-diamino-6-((1-(6-fluoro-4-oxo-3-(1H-pyrazol-3-yl)-3,4-dihydroquinazolin-2-yl)ethyl)amino)pyrimidine-5-carbonitrile]: the results for the concentration for half-maximal inhibition (IC50) at PI3Kδ (setting [1]), at PI3Kγ (setting [1]) and against PI3Kβ (setting [1]) were 1 nM, 560 nM and 2 nM, respectively.

As for `CC[C@H](Nc1nc(N)nc(N)c1Cl)c1nc2ccc(F)cc2c(=O)n1-c1cc[nH]n1` [Compound 116, (S)-2-(1-((2,6-diamino-5-chloropyrimidin-4-yl)amino)propyl)-6-fluoro-3-(1H-pyrazol-3-yl)quinazolin-4(3h)-one], the IC50 against PI3Kδ (setting [1]) is 44 nM; at PI3Kγ it was > 10000 nM; at PI3Kβ (setting [1]), 210 nM.

For `C[C@H](NC(=O)c1c(N)nn2cccnc12)c1nc2cccc(Cl)c2c(=O)n1-c1cc[nH]n1` [Compound 117, (S)-2-amino-N-(1-(5-chloro-4-oxo-3-(1H-pyrazol-3-yl)-3,4-dihydroquinazolin-2-yl)ethyl)pyrazolo[1,5-a]pyrimidine-3-carboxamide], the IC50 came to 110 nM against PI3Kδ (setting [1]), 160 nM at PI3Kγ (setting [1]) and 37 nM against PI3Kβ (setting [1]).

As to `CC[C@H](NC(=O)c1nccnc1N)c1nc2c(Cl)ccc(Cl)c2c(=O)n1-c1cc[nH]n1` [Compound 118, (S)-3-amino-N-(1-(5,8-dichloro-4-oxo-3-(1H-pyrazol-3-yl)-3,4-dihydroquinazolin-2-yl)propyl)pyrazine-2-carboxamide], the half-inhibitory concentration (IC50) against PI3Kδ (setting [1]) was 260 nM; on PI3Kγ, > 10000 nM; on PI3Kβ (setting [1]) it was 510 nM.

With `CC[C@H](NC(=O)c1cnn2cccnc12)c1nc2c(Cl)ccc(Cl)c2c(=O)n1-c1cn[nH]c1` [Compound 119, (S)—N-(1-(5,8-dichloro-4-oxo-3-(1H-pyrazol-4-yl)-3,4-dihydroquinazolin-2-yl)propyl)pyrazolo[1,5-a]pyrimidine-3-carboxamide], the figures for the half-inhibitory concentration (IC50) against PI3Kδ (setting [1]), on PI3Kγ (setting [1]) and against PI3Kβ (setting [1]) were 170 nM, 7200 nM and 360 nM, respectively.

Turning to `CC[C@H](NC(=O)c1cnn2cccnc12)c1nc2c(Cl)ccc(Cl)c2c(=O)n1-c1cc[nH]n1` [Compound 120, (S)—N-(1-(5,8-dichloro-4-oxo-3-(1H-pyrazol-3-yl)-3,4-dihydroquinazolin-2-yl)propyl)pyrazolo[1,5-a]pyrimidine-3-carboxamide], the half-inhibitory concentration (IC50) was 720 nM against PI3Kδ (setting [1]), > 10000 nM at PI3Kγ and 530 nM on PI3Kβ (setting [1]).

Turning to `C[C@H](NC(=O)c1nccnc1N)c1nc2cccc(Cl)c2c(=O)n1-c1cc[nH]n1` [Compound 121, (S)-3-amino-N-(1-(5-chloro-4-oxo-3-(1H-pyrazol-3-yl)-3,4-dihydroquinazolin-2-yl)ethyl)pyrazine-2-carboxamide], the IC50 came to 20 nM against PI3Kδ (setting [1]), 890 nM on PI3Kγ (setting [1]) and 79 nM against PI3Kβ (setting [1]).

Turning to `CC[C@H](NC(=O)c1nccnc1N)c1nc2c(Cl)ccc(Cl)c2c(=O)n1-c1cn[nH]c1` [Compound 122, (S)-3-amino-N-(1-(5,8-dichloro-4-oxo-3-(1H-pyrazol-4-yl)-3,4-dihydroquinazolin-2-yl)propyl)pyrazine-2-carboxamide], the values for the half-maximal inhibitory concentration (IC50) on PI3Kδ (setting [1]), on PI3Kγ and against PI3Kβ (setting [1]) were 200 nM, > 10000 nM and 640 nM, respectively.

For the compound `CCC[C@H](Nc1nc(N)nc(N)c1Cl)c1nc2cccc(Cl)c2c(=O)n1-c1cc[nH]n1` [Compound 124, (S)-5-chloro-2-(1-((2,6-diamino-5-chloropyrimidin-4-yl)amino)butyl)-3-(1H-pyrazol-3-yl)quinazolin-4(3h)-one], the 50% inhibitory concentration (IC50) was determined as 12 nM against PI3Kδ (setting [1]), 6700 nM on PI3Kγ (setting [1]) and 14 nM at PI3Kβ (setting [1]).

As to `C[C@H](Nc1nc(N)nc(N)c1Cl)c1nc2cccc(C(F)F)c2c(=O)n1-c1cc[nH]n1` [Compound 126, (S)-2-(1-((2,6-diamino-5-chloropyrimidin-4-yl)amino)ethyl)-5-(difluoromethyl)-3-(1H-pyrazol-3-yl)quinazolin-4(3H)-one], the half-inhibitory concentration (IC50) came to 3 nM on PI3Kδ (setting [1]), 2800 nM on PI3Kγ (setting [1]) and 5 nM against PI3Kβ (setting [1]).

With `N#Cc1c(N)nc(N)nc1N[C@H](c1nc2cccc(Cl)c2c(=O)n1-c1cc[nH]n1)C1CCC1` [Compound 128, (S)-2,4-diamino-6-(((5-chloro-4-oxo-3-(1H-pyrazol-3-yl)-3,4-dihydroquinazolin-2-yl)(cyclobutyl)methyl)amino)pyrimidine-5-carbonitrile], the IC50 on PI3Kδ (Table 2a, same assay) was 2 nM; on PI3Kγ (Table 2a, same assay), 2000 nM; against PI3Kβ (Table 2a, same assay), 2 nM.

Regarding `Nc1nc(N)c(Cl)c(N[C@H](c2nc3c(Cl)cc(F)cc3c(=O)n2-c2cc[nH]n2)C2CCC2)n1` [Compound 129, (S)-8-chloro-2-(cyclobutyl((2,6-diamino-5-chloropyrimidin-4-yl)amino)methyl)-6-fluoro-3-(1H-pyrazol-3-yl)quinazolin-4(3H)-one], the IC50 at PI3Kδ (Table 2a, same assay) was 86 nM; on PI3Kγ (Table 2a, same assay) it was > 10000 nM; at PI3Kβ (Table 2a, same assay) it was 270 nM.

For `N#Cc1c(N)nc(N)nc1N[C@H](c1nc2c(Cl)cc(F)cc2c(=O)n1-c1cc[nH]n1)C1CCC1` [Compound 130, (S)-2,4-diamino-6-(((8-chloro-6-fluoro-4-oxo-3-(1H-pyrazol-3-yl)-3,4-dihydroquinazolin-2-yl)(cyclobutyl)methyl)amino)pyrimidine-5-carbonitrile], the IC50 was found to be 4 nM against PI3Kδ (Table 2a, same assay); 7800 nM at PI3Kγ (Table 2a, same assay); 4 nM on PI3Kβ (Table 2a, same assay).

Regarding `N#Cc1c(N)nc(N)nc1N[C@H](c1nc2cccc(C(F)F)c2c(=O)n1-c1cc[nH]n1)C1CCC1` [Compound 131, (S)-2,4-diamino-6-((cyclobutyl(5-(difluoromethyl)-4-oxo-3-(1H-pyrazol-3-yl)-3,4-dihydroquinazolin-2-yl)methyl)amino)pyrimidine-5-carbonitrile], the IC50 worked out at 4 nM against PI3Kδ (Table 2a, same assay); 2000 nM at PI3Kγ (Table 2a, same assay); 2 nM at PI3Kβ (Table 2a, same assay).

As for `Nc1nc(N)c(Cl)c(N[C@H](c2nc3cccc(C(F)F)c3c(=O)n2-c2cc[nH]n2)C2CCC2)n1` [Compound 132, (S)-2-(cyclobutyl((2,6-diamino-5-chloropyrimidin-4-yl)amino)methyl)-5-(difluoromethyl)-3-(1H-pyrazol-3-yl)quinazolin-4(3H)-one], the IC50 was 42 nM against PI3Kδ (Table 2a, same assay); > 10000 nM on PI3Kγ (Table 2a, same assay); 75 nM against PI3Kβ (Table 2a, same assay).
